Data published in patent US10750729B2, “Pig for atrioventricular block model, monkey for atrioventricular block model, guinea pig for atrioventricular block model, and use thereof” (Toho University, priority 2012, dated 2020).
Several values for one entry are separate records, joined by “and”; a condition that tells them apart may be missing. Identical values can stand only once.

Legend:
[1] = system: dog; conditions: dose 10 times to 30 times greater than that for human; cited from earlier work
[2] = system: mouse; conditions: dose 10 times to 30 times greater than that for human; cited from earlier work
[3] = system: Extremely small-size miniature pigs (Microminipig); test: Test Example 1: electrocardiogram of halothane-anesthetized extremely small-size miniature pigs; type: in vivo; conditions: pig; for Heart rate (HR) / PR interval / QT interval / RR interval: 0.1 mg/kg/10 min i.v., individuals #1, #2, 0.1 mg/kg
Source text: Extremely small-size miniature pigs (trade name: Microminipig, body weight: about 10 kg, male, obtained from Fuji Micra Inc.) were each anesthetized by allowing them to inhale 100% by volume oxygen and 4% by volume vaporized halothane (product of Takeda Pharmaceutical Company Limited.). After insertion of a tracheal cannula, an artificial respirator was used to ventilate it with 100% by volume oxygen and 1% by volume vaporized halothane. Here, the artificial respirator for experimental animals was set to a tidal volume of 10 mL/kg and a respiration rate of 20 strokes/min. Next, a cannula for drug administration was inserted to their left femoral vein. Then, ECG standard limb II leads was continuously recorded.
Each of the extremely small-size miniature pigs (n=2) of Example 1 was recorded for an electrocardiogram before drug administration.
(§1) Fingolimod (FTY720, product of Sigma-Aldrich Inc.) was dissolved in physiological saline (product of Otsuka Pharmaceutical Factory, Inc.) so as to have a concentration of 0.1 mg/mL.
(§2) After the evaluation of base control, the cannula for drug administration was inserted, and the above-prepared FTY720 solution was intravenously administered to each of the extremely small-size miniature pigs (n=2) of Example 1 for 10 min at a dose of 0.1 mg/kg. An electrocardiogram was recorded for 60 min from the start of administration of the FTY720 solution.

[4] = system: Monkeys (Macaca fascicularis); test: Test Example 2: electrocardiogram of halothane-anesthetized monkeys; type: in vivo; conditions: monkey, 50 min after the administration
Experimental: Monkeys (Macaca fascicularis, body weight: about 3 kg, male, produced in China, purchased from a domestic breeder) were each anesthetized by intravenously administering thereto sodium thiopental (product of Mitsubishi Tanabe Pharma Corporation) at 25 mg/kg. After insertion of a tracheal cannula, an artificial respirator was used to ventilate it with 100% by volume oxygen and 1% by volume vaporized halothane. Here, the artificial respirator for experimental animals was set to a tidal volume of 20 mL/kg and a respiration rate of 15 strokes/min. Next, a cannula for drug administration was inserted to their left femoral vein. Then, ECG standard limb II leads was continuously recorded.
Each of the monkeys (n=2) of Example 2 was recorded for an electrocardiogram before drug administration.
as §1
as §2, with “the monkeys” for “the extremely small-size miniature pigs”, “Example 2” for “Example 1”

[5] = 10 min after the administration
[6] = 60 min after the administration
[7] = 0.1 mg/kg/10 min i.v., individuals #1, #2, 0.1 mg/kg

PR interval [3, 5]: 78 ms and 71 ms
RR interval [3, 5]: 438 ms and 311 ms
PR interval [3, 6]: 75 ms and 89 ms
RR interval [3, 6]: 304 ms and 552 ms
PR interval change versus base control ([4]; 0.1 mg/kg i.v.): prolongation of PR interval was observed
PR interval [4, 7]: 71 ms and 110 ms
SMILES: CCCCCCCCc1ccc(CCC(N)(CO)CO)cc1 [FTY720, Fingolimod]
occurrence of atrioventricular block [1]: not reported
occurrence of atrioventricular block [2]: not reported
QT interval change versus base control ([3]; 0.1 mg/kg i.v., 10 min after the administration): prolongation of QT interval was observed
PR interval change versus base control ([3]; 0.1 mg/kg i.v., 60 min after the administration): prolongation of PR interval was also observed
Heart rate (HR) [3, 5]: 137 beats/min and 192 beats/min
QT interval [3, 5]: 271 ms and 221 ms
Heart rate (HR) [3, 6]: 197 beats/min and 108 beats/min
QT interval [3, 6]: 227 ms and 271 ms
Heart rate (HR) ([4]; 0.1 mg/kg/10 min i.v., individuals #1, #2): 105 beats/min
Heart rate (HR) [4, 7]: 104 beats/min
